The source of these data is patent US11717477B2, “Vaginal systemic drug delivery” (LiGalli B.V., priority 2018, dated 2023).

Values joined by “and” are separate entries in the source; they are usually repeats but may differ in a detail not shown here. Identical values can stand only once. Counter-ions that a name gives are not always drawn. Like-named read-outs stand apart in the source and are kept apart here. Where only a bound is given, the exact number is not on record here.

The conditions of data set [1]: cited from earlier work.
A short description of another data set: in vivo. The settings on record: female, Beagle, dog.
For data set [2] the following is noted: cited from earlier work. The source holds these as a separate data set.
The conditions of data set [3]: physiological release of oxytocin; cited from earlier work.
[4] abbreviates: Human, Lorazepam 2.0 mg, intramuscular, Wermeling.
Where [5] appears, read: Human, Lorazepam 2.0 mg, intravenous, Wermeling.
Setting [6] is: Human, Lorazepam 2.0 mg, nasal, Wermeling.
Where [7] appears, read: Human, Lorazepam 2.0 mg, oral, Blin.
Where [8] appears, read: 0.8 mg, Lorazepam 0.8 mg (1st), vaginal, present study.
The mark [9] stands for this setting: 0.8 mg, Lorazepam 0.8 mg (2nd), vaginal, present study.
Where [10] appears, read: vaginal administration, Beagle dogs, two animals per compound.
Setting [11] is: 5 min after first vaginal dose, individual dogs.
The mark [12] stands for this setting: 10 min after first vaginal dose, individual dogs.
The mark [13] stands for this setting: 20 min after first vaginal dose, individual dogs.
Where [14] appears, read: 30 min after first vaginal dose, individual dogs.
Where [15] appears, read: 60 min after first vaginal dose, individual dogs.
[16] abbreviates: 135 min after first dose (second vaginal dose at 125 min), individual dogs.
Setting [17] is: 155 min after first dose (second vaginal dose at 125 min), individual dogs.
Setting [18] is: 185 min after first dose (second vaginal dose at 125 min), individual dogs.
Where [19] appears, read: Dog, Lorazepam 0.8 mg (1st), vaginal, present study.
Setting [20] is: Human, Nicotine 2.0 mg, intrapulmonary, Russell.
Setting [21] is: Human, Nicotine 4.0 mg, oral (gum), Russell.
Where [22] appears, read: Dog, 2.5 mg/24 h, vaginal (ring), WO2011163358.
Setting [23] is: Dog, 6.0 mg/24 h, vaginal (ring), WO2011163358.
Setting [24] is: Dog, 10 mg/24 h, oral, WO2011163358.
Setting [25] is: Human, dose 5.0, dermal (patch), Kennelly.
[26] abbreviates: Human, dose 5.0, oral (ext. rel.), Kennelly.
Where [27] appears, read: Human, dose 5.0, oral, Kennelly.
Setting [28] is: Human, dose 100, dermal (gel), Kennelly.

The term Cmax denotes the highest concentration seen after dosing. Usually Tmax stands for the time from dosing to the highest level. Regarding `CC(C)C[C@H](NC(=O)CNC(=O)[C@H](Cc1ccc(O)cc1)NC(=O)[C@H](CO)NC(=O)[C@H](Cc1c[nH]c2ccccc12)NC(=O)[C@H](Cc1cnc[nH]1)NC(=O)[C@@H]1CCC(=O)N1)C(=O)N[C@@H](CCCNC(=N)N)C(=O)N1CCC[C@H]1C(=O)NCC(N)=O` [GnRH, Gonadotropin-releasing hormone], in data set [1] (human, in vivo, inhaled or intranasal, 0.8 mg), the maximum concentration (Cmax) was 0.35 ng/mL. In addition, the Cmax in data set [1] (human, in vivo) is 0.002 ng/mL. Moreover, in the data set “in vivo” (0.5 mg), the Tmax is 10 min. In “in vivo” (50 uL, Plasma concentration), this compound registered a level at 20 min of 0.41 ng/mL, a level at 0.5 h of 0.2 ng/mL, a level at 2.25 h of 0.71 ng/mL and a level at 245 min of 0.19 ng/mL. The time to peak (Tmax) in “in vivo” is no more than 5 min. In addition, under “dog, in vivo”, the Plasma concentration result is given as “<LLOQ” and the “Time until plasma levels fall below LLOQ / return to baseline” value was no more than 60 min. Moreover, for the setting “female, Beagle, dog, in vivo, 0.5 mg”, the Tmax is recorded as 5 min.
Take `O=C1Nc2ccc(Cl)cc2C(c2ccccc2Cl)=NC1O` (stereo not drawn) [Lorazepam]: the Cmax in data set [1] (setting [4]) was 22.6 ng/mL; in data set [1] (setting [5]) it was 47.6 ng/mL; in data set [1] (setting [6]), 33.4 ng/mL; in data set [1] (setting [7]), 33.4 ng/mL; in the data set “in vivo” (setting [8]), 4 ng/mL; in “in vivo” (setting [9]) it was 7.8 ng/mL. The highest concentration (Cmax) is 2.8 ng/mL under setting [19] and 7.0 ng/mL (Dog, Lorazepam 0.8 mg (2nd), vaginal, present study). Further, the Tmax in data set [1] (setting [4]) was 180 min; in data set [1] (setting [5]) it was 6 min; in data set [1] (setting [6]) it was 55 min; in data set [1] (setting [7]) it was 55 min; in the data set “in vivo” (setting [8]), 5 min; in “in vivo” (setting [9]) it was 10 min. For the same compound, the Tmax in the data set “in vivo” (setting [10]) is 10 min, the time of peak concentration (Tmax) under setting [19] is given as 10 min and the time to peak (Tmax) under setting [10] is listed as 20 min. The Plasma concentration is 1.55 ng/mL and 3.93 ng/mL under setting [11]; 2.65 ng/mL and 3.47 ng/mL under setting [12]; 2.23 ng/mL and 4.25 ng/mL under setting [13]; 1.49 ng/mL and 3.28 ng/mL under setting [14]; 0.38 ng/mL and 0.99 ng/mL under setting [15]; 7.65 ng/mL and 7.13 ng/mL under setting [16]. Further, the Plasma concentration by setting is: under setting [17], 4.96 ng/mL and 6.16 ng/mL; under setting [18], 1.89 ng/mL and 3.32 ng/mL; (Pre-dose, individual dogs) “<LLOQ”. Besides, where the note is “after vaginal administration, Beagle dogs”, the “Time until plasma levels fall below LLOQ / return to baseline” value was no more than 120 min.
On to `CN1CCCC1c1cccnc1` (stereo not drawn) [Nicotine], for which the Tmax in data set [2] (dog, in vivo, po, 64 mg) was 120 min; in data set [2] (dog, in vivo, po, 148 mg), 60 min; in data set [1] (setting [20]) it was 2 min; in data set [1] (setting [21]), 30 min; in the data set “in vivo” (2.5 mg) it was 10 min; in the data set “in vivo”, no more than 5 min. Moreover, the Tmax is reported as 10 min (female, Beagle, dog, in vivo) and 5 min (female, Beagle, dog, in vivo, 2.5 mg). Besides, the maximum concentration (Cmax) is reported as 49 ng/mL in data set [1] (setting [20]) and 40 ng/mL in data set [1] (setting [21]). The “Cmax / plasma concentration of one animal relative to the other animal” value (dog, in vivo) is listed as “more than 4 times”. Besides, the “Time until plasma levels fall below LLOQ / return to baseline” value (female, Beagle, dog, in vivo) was no more than 120 min.
For the compound `O=[N+]([O-])OCC(CO[N+](=O)[O-])O[N+](=O)[O-]` [Nitroglycerin], the Plasma concentration entry by setting is: under setting [11], “<LLOQ”; under setting [12], “<LLOQ”; under setting [13], “<LLOQ”; under setting [14], “<LLOQ”; under setting [15], “<LLOQ”; (120 min after first vaginal dose, individual dogs) “<LLOQ”. In addition, the Plasma concentration result under setting [16] was “<LLOQ”; the Plasma concentration result under setting [17] is recorded as “<LLOQ”; the Plasma concentration result under setting [18] was “<LLOQ”; the Plasma concentration entry (245 min after first dose (second vaginal dose at 125 min), individual dogs) is “<LLOQ”; the Plasma concentration entry (Pre-dose, individual dogs) was “<LLOQ”. Further, the “Parent compound concentration detectable in plasma” value (after vaginal administration of Nitroglycerin, Beagle dogs, listed as nitroglycerin) is on record as “no detectable concentrations”.
With `CCN(CC)CC#CCOC(=O)C(O)(c1ccccc1)C1CCCCC1` (stereo not drawn) [Oxybutynin HCl], the highest concentration (Cmax) in data set [2] (setting [22]) is 14.0 ng/mL; in data set [2] (setting [23]), 18.8 ng/mL; in data set [2] (setting [24]) it was 17.9 ng/mL; in data set [1] (setting [25]) it was 4.2 ng/mL; in data set [1] (setting [26]), 2.1 ng/mL; in data set [1] (setting [27]), 10.0 ng/mL. Moreover, the highest concentration (Cmax) in data set [1] (setting [28]) is reported as 3.2 ng/mL. Also, the time to peak (Tmax) in data set [2] (setting [22]) is 90 min; in data set [2] (setting [23]), 90 min; in data set [2] (setting [24]), 180 min; in data set [1] (setting [25]), 1500 min; in data set [1] (setting [26]), 60 min; in data set [1] (setting [27]), 50 min. The Tmax is 1500 min in data set [1] (setting [28]) and 10 min in the data set “in vivo”. Also, the “Cmax / plasma concentration of one animal relative to the other animal” value (dog, in vivo) was “more than 3 times”. For the same compound, the “Elimination from the body” value (dog, in vivo) is “almost completely eliminated”. Further, for the setting “dog, in vivo”, the Plasma concentration entry is on record as “<LLOQ”.
Consider `CC[C@H](C)[C@@H]1NC(=O)[C@H](Cc2ccc(O)cc2)NC(=O)[C@@H](N)CSSC[C@@H](C(=O)N2CCC[C@H]2C(=O)N[C@@H](CC(C)C)C(=O)NCC(N)=O)NC(=O)[C@H](CC(N)=O)NC(=O)[C@H](CCC(N)=O)NC1=O` [oxytocin], for which the half life time result in data set [3] is reported as “less than 6 minutes”.
